Test results from the OligoGym collection.
Several values for one entry are separate records, joined by “and”; a condition that tells them apart may be missing. Identical values can stand only once. After the bases stand the sugars from the 5' end (letter, count) and the backbone: PS all phosphorothioate, else s phosphorothioate and o phosphodiester by linkage. Methylation of C is not given here. e = 2'-O-(2-methoxyethyl) (MOE); d = 2'-deoxy (DNA)

Target: DGAT2
Details: ASO

| Sequence | target mRNA inhibition (HepG2, 2.5 µM) | target mRNA inhibition (HepG2, 10 µM) | target mRNA inhibition (HepG2, 0.12 µM) [%] | target mRNA inhibition (HepG2, 20 µM) [%] |
| --- | --- | --- | --- | --- |
| ATGGTGTGTTGGCTCCCTGT (sugars e5 d10 e5, PS) | 53% | 53% |  |  |
| ATTCATCTTTCCAGATCCGG (sugars e5 d10 e5, PS) | 92% | 88% |  |  |
| CAAACAGATTAAAGTTGCTC (sugars e5 d10 e5, PS) | 78% and 72% | 90% and 91% |  |  |
| CAAAGATATAGTTCCTGGTG (sugars e5 d10 e5, PS) |  |  | 61 |  |
| CAACAGGCTCTGGTTCCATG (sugars e5 d10 e5, PS) |  |  | 56 |  |
| CAAGGATGACCTTGGGTCAG (sugars e5 d10 e5, PS) | 18% | 44% |  |  |
| CAAGGCTGAGTCTGTGCTGC (sugars e5 d10 e5, PS) |  |  | 24 |  |
| CACAATGGGAATGGTATCGC (sugars e5 d10 e5, PS) | 59% | 91% |  |  |
| CACACAGCCCAGTTTCGGAC (sugars e5 d10 e5, PS) |  |  | 24 |  |
| CACAGTCATCTTGTGTACAT (sugars e5 d10 e5, PS) | 74% and 76% | 92% and 93% |  |  |
| CACCAGGGCCTCCATGTACA (sugars e2 d13 e5, PS) |  |  | 69 |  |
| CACCAGGGCCTCCATGTACA (sugars e5 d10 e5, PS) | 31% | 69% |  | 26 |
| CACCATAATCTGCACAGGTT (sugars e5 d10 e5, PS) | 86% and 94% | 88% and 93% |  |  |
| CACCTGCTTGTACACTTCAT (sugars e5 d10 e5, PS) | 59% | 90% |  |  |
| CACTAATTCTGGGCTTCCAG (sugars e5 d10 e5, PS) | 64% | 96% |  |  |
| CACTGGAGCACTGAGATGAC (sugars e2 d13 e5, PS) |  |  | 61 |  |
| CACTGGAGCACTGAGATGAC (sugars e3 d14 e3, PS) |  |  | 55 |  |
| CACTTGATCTGGGACCCAAA (sugars e5 d10 e5, PS) | 41% | 92% |  |  |
| CACTTGCTTGAGGTCAGGGT (sugars e5 d10 e5, PS) | 81% and 75% | 81% and 74% |  |  |
| CAGATACCTCCAGACATCAG (sugars e5 d10 e5, PS) |  |  | 38 |  |
| CAGCACTAATTTTTACAACT (sugars e5 d10 e5, PS) | 86% | 95% |  |  |
| CAGCACTGACATGGTAAGTC (sugars e5 d10 e5, PS) | 79% and 69% | 92% and 97% |  |  |
| CAGCAGGTTGTGTGTCTTCA (sugars e2 d13 e5, PS) |  |  | 57 |  |
| CAGCTAATGATACAAGGTTG (sugars e5 d10 e5, PS) |  |  | 55 |  |

| Sequence | target mRNA inhibition (HepG2, 2.5 µM) | target mRNA inhibition (HepG2, 10 µM) | target mRNA inhibition (HepG2, 0.12 µM) [%] | target mRNA inhibition (HepG2, 20 µM) [%] |
| --- | --- | --- | --- | --- |
| CAGCTGGATGGGAAAGTAGT (sugars e5 d10 e5, PS) |  |  | 21 |  |
| CAGCTGTGATGACTTCCCAG (sugars e5 d10 e5, PS) | 49% | 81% |  |  |
| CAGGACCCACTGGAGCACTG (sugars e2 d13 e5, PS) |  |  | 78 |  |
| CAGGACCCACTGGAGCACTG (sugars e3 d14 e3, PS) |  |  | 71 |  |
| CAGGCAGCCTGAAGGACACT (sugars e5 d10 e5, PS) |  |  | 49 |  |
| CAGGCAGGTGTCAGAGGGCT (sugars e5 d10 e5, PS) |  |  | 21 |  |
| CAGGCATGGAGCTCAGAGAC (sugars e5 d10 e5, PS) |  |  | 57 |  |
| CAGGGTCCTCTCCGCTGCCT (sugars e5 d10 e5, PS) | 78% and 80% | 85% and 87% |  |  |
| CAGGTAAGGCCGTATGCCTG (sugars e2 d13 e5, PS) |  |  | 59 |  |
| CAGGTAAGGCCGTATGCCTG (sugars e3 d14 e3, PS) |  |  | 72 |  |
| CAGTTTCGGACCCACTGTGA (sugars e2 d13 e5, PS) |  |  | 77 |  |
| CATACTAGACTATGCAGCCT (sugars e5 d10 e5, PS) | 89% and 69% | 97% and 93% |  |  |
| CATTGCCACTCCCATTCTTT (sugars e2 d13 e5, PS) |  |  | 40 |  |
| CCAAGCAGGAGCTGGACAGA (sugars e5 d10 e5, PS) |  |  | 19 |  |
| CCAATGCACCTTGTATTAAA (sugars e5 d10 e5, PS) | 72% | 92% |  |  |
| CCAATGCCTAGGTCACA (sugars e3 d10 e4, PS) | 61% | 83% |  |  |
| CCACCACCTAGAACAGGGCA (sugars e5 d10 e5, PS) |  |  | 55 |  |
| CCACTGGAGCACTGAGATGA (sugars e5 d10 e5, PS) |  |  | 71 |  |
| CCACTGTGACCTCCTGCCAC (sugars e5 d10 e5, PS) |  |  | 30 |  |
| CCAGCCCCCAGGTGTCGGAG (sugars e5 d10 e5, PS) |  |  | 50 |  |
| CCAGGTAAGGCCGTATGCCT (sugars e3 d14 e3, PS) |  |  | 71 |  |
| CCAGGTGTCGGAGGAGAAGA (sugars e5 d10 e5, PS) |  |  | 53 |  |
| CCAGTTTCGGACCCACTGTG (sugars e3 d14 e3, PS) |  |  | 82 |  |
| CCATGTCAGAGAGGCTC (sugars e3 d10 e4, PS) | 81% and 76% |  |  |  |
